# How the values were obtained:
# MMP2 = assay: Gelatin zymography of HUVEC conditioned media; format: cell-based, human; conditions: HUVEC, 0.1% FBS, 16 h, various concentrations
# Description: In vivo, ECs can not migrate until they secrete enzymes necessary to break down components of the extra cellular matrix. Gelatin zymography was employed to determine if clustered Vasculotide promoted secretion of MMP2. To perform the zymography, HUVEC were cultured in F12 media plus 0.1% FBS and stimulated for 16 h with VEGF, unclustered Vasculotide or clustered Vasculotide at various concentrations. Conditioned media was centrifuged to remove cellular debris and prepared for gel electrophoresis using non-reducing conditions. Gels were washed twice for 30 minutes in 2.5% Triton X-100 to remove sodium dodecyl sulfate and were then incubated in substrate buffer (50 mmol/L Tris-HCl, pH 8.8, 5 mmol/L CaCl2) for 16 hours at 37° C. Gels were then stained with 0.5% Coomassie blue in 30% methanol/10% acetic acid for 2 hours at room temperature and destained in 50% methanol/10% acetic acid. The presence of metalloproteinases was indicated by unstained proteolytic zones in the gel.
# MAPK, AKT and eNOS = assay: Phosphorylation of downstream signalling proteins in HUVEC (immunoblot); format: cell-based, human
# Description: Having established that Vasculotide was able to bind Tie 2 (see Example 2), the ability of Vasculotide, when clustered with avidin in a 4:1 ratio (Vasculotide:avidin), to activate the Tie 2 receptor was tested by examining several well established downstream signalling pathways in human umbilical vein endothelial cells (HUVEC) (Cambrex, N.J.). Such signalling pathways are described in, for example, Kim, I. et al. (2000) Circ. Res. 9:952-959; Fujikawa, K. et al. (1999) Exp. Cell. Res. 2:663-672; Babaei, S. et al. (2003) Am. J. Pathol. 6:1927-1936.
# HUVEC were grown on 6-well or 10 cm plates (Nunc) coated with gelatin (Sigma). HUVEC were cultured in F12 growth medium containing 10% fetal bovine serum (FBS), 0.1 mg/ml heparin sulphate, 1× penicillin, 1× streptomycin, 1× glutamine, VEGF 10 ng/ml, EGF 10 ng/ml, bFGF 5 ng/ml. All HUVEC were used between passage 3-9.
# HUVEC were stimulated with one of either Ang 1 (R&D Systems), Vasculotide, avidin or clustered Vasculotide (preclustered with a 4:1 molar ratio of peptide:avidin in PBS for 2 hours at 4° C.) at various doses. Stimulations with Vasculotide were performed in full serum containing growth media for 15 minutes unless otherwise indicated. Cell lysate preparations and immunoblot analysis were performed by standard methods. […]
substance,measurement,setting,value
"clustered Vasculotide: Vasculotide clustered with avidin in a 4:1 ratio, an obligate tetrameric compound","Secretion of MMP2 (gelatin degradation, pro and active forms)",MMP2,dose-dependently degraded gelatin
same,pMAPK and pAKT in the time course,"MAPK, AKT and eNOS; 10% FBS",marked increases in pMAPK and pAKT
same,"Phosphorylation of Tie 2-responsive proteins MAPK, AKT and eNOS","MAPK, AKT and eNOS; coincident with receptor activation","phosphorylation of several known Tie 2-responsive proteins including MAPK, AKT and eNOS, was observed"
